Measurements as given in patent publication US20240390377A1, “COMPOSITION FOR THE PREVENTION OR TREATMENT OF NEURODEGENERATIVE OR MOTOR NEURON DISEASES COMPRISING HALOFUGINONE AS AN ACTIVE INGREDIENT” (CURAMYS CO., LTD., priority 2022, published 2024).

What was measured:
[1] = system: G93A mutant SOD1 transgenic mice; experiment: Western blot analysis of lumbar spinal cord in ALS animal model; type: in vivo, mouse
Protocol: (§1) As a control group, non-transgenic mice were injected intraperitoneally (i.p.) with vehicle (DMSO) in the same manner for the same period of time.
Specifically, the lumbar spinal cord or knee joint of the mouse of Example 6 was separated and immediately frozen at −80° C. Each lumbar spinal cord or knee joint was then homogenized and chemically treated to obtain cells. The chemically treated cells, the C2C12 cells of Example 1 or the fibroblasts of Example 5 were dissolved in a RIPA buffer (Thermo, MA, USA) with a protease inhibitor and a phosphatase inhibitor (Roche, IN, USA) and incubated on ice for 30 minutes. After centrifugation of the lysate at 13,000 rpm at 4° C. for 20 min, insoluble substances were removed. Protein concentrations were measured by BCA analysis (Pierce Biotechnology). Equal volumes of cell lysate were loaded onto SDS-PAGE gels for electrophoresis, and transferred onto nitrocellulose membranes (Amersham Protran 0.2 um NC, Amersham Pharmacia Biotech, Piscataway, NJ, USA). The membranes were then blocked with 5% (w/v) skimmilk in 1×TBST for 1 h at room temperature. After blocking, anti-RB-actin antibody (1:5000; Santa Cruz, cat #sc47778), anti-Smad2 antibody (1:1000; Cell Signaling, cat #5339), anti-p-Smad2 antibody (1:1000; Cell Signaling, cat #3108), anti-TGF-β1 antibody (1:1000; Santa Cruz, cat #sc130348), anti-α-SMA antibody (1:10000; abcam cat #ab7817), anti-MyoD antibody (1:1000; cat #sc377460), anti-collagen|antibody (1:1000; abcam cat #ab21286), anti-cleaved caspase-3 antibody (1:1000; Cell Signaling, cat #9661), anti-bax antibody (1:500; Santa Cruz, cat #sc493), anti-bcl2 antibody (1:1000; Novus Biologics, cat #NB100-56098), anti-ChAT antibody (1:1000; Millipore, cat #AB144) were treated and incubated overnight at 4° C. […] The membranes were then washed, briefly incubated with the SuperSignal West Pico Plus Chemical Substructure (Pierce Biotechnology) according to the manufacturer's procedure, and quantified with an image analyzer (Amersham Pharmacia Biotech, Piscataway, NJ, USA). β-actin was used as an internal control group. The concentration measurement of protein intensity was quantified using Image J (National Institutes of Health).
In addition, to investigate the motor neuron source of the spinal cord, motor neurons of the lumbar spinal cord were observed and counted in the same manner as described in Example 9 (FIG. 9d), and real-time qRT-PCR and Western blot analysis were performed in the same manner as described in Example 11 and Example 12 to quantitatively analyze the expression of ChAT mRNA (FIG. 9e) and ChAT protein (FIG. 9f). […]

[2] = system: G93A mutant SOD1 transgenic mice; experiment: Real-time qRT-PCR analysis of lumbar spinal cord in ALS animal model; type: in vivo, mouse
Protocol: as §1
Specifically, total RNA was isolated from C2C12 cells in Example 1, fibroblasts in Example 5, and the lumbar spinal cord of mice in Example 6 using the FavorPrep™ Tri-RNA Reagent (Favorgen). The lumbar spinal cord was isolated from the mouse in Example 6 and stored frozen at −80° C. until the experiment. The concentration of total RNA was measured at 260 nm absorbance using a spectrophotometer (NanoDrop Spectrophotometer ND-2000, Thermo Scientific). cDNA was synthesized from 1 μg of total RNA using the ReverTra Ace-α™ (Toyobo) according to the manufacturers protocol. Quantitative RT-PCR was performed using the SYBR Green ExcelTaq™ 2× Fast Q-PCR Master Mix (TQ1200, Smobio) on a thermocycler (CFX Connect Real-Time PCR Detection System, BIO-RAD) with the primers listed in Table 3 below. Fluorescence data were analyzed with Bio-Rad CFX Manager 3.1 software, and control versus relative mRNA expression was calculated by the 2AT) method. Experiments were performed four times on all samples. All primers were designed using Primer3 online software, and GAPDH was used as a control group.
In addition, to investigate the motor neuron source of the spinal cord, motor neurons of the lumbar spinal cord were observed and counted in the same manner as described in Example 9 (FIG. 9d), and real-time qRT-PCR and Western blot analysis were performed in the same manner as described in Example 11 and Example 12 to quantitatively analyze the expression of ChAT mRNA (FIG. 9e) and ChAT protein (FIG. 9f).
Specifically, Halofuginone was administered to G93A mutant SOD1 mice in the same manner as described in <Example 6>, and lumbar spinal cord was isolated after 120 days of age of mice were sacrificed. Then, mRNA expression of inflammation-related factors and neuronal cell death-related factors of CNS was confirmed by performing real-time qRT-PCT analysis in the same manner as in Example 11 (FIG. 11a), and protein expression of neuronal cell death-related factors was confirmed by performing Western blot analysis in the same manner as in Example 12 (FIG. 11b). Since the role (inflammatory or anti-inflammatory effect) differs according to the M1 or M2 subtype of microglia, the expression of M1 marker (iNOS, CD86), M2 marker (arginase 1) and pro-inflammatory factors (IFN-a, TNF-a, IL-1b, and IL-6) were confirmed as factors related to inflammation of CNS. In addition, the expression of caspase-3, bax, and bcl-2 was confirmed as factors related to neuronal apoptosis.

[3] = 120 days of age, change in DMSO TG vs DMSO Non-TG (FIG. 11b)

In the case of `O=C(C[C@H]1NCCC[C@@H]1O)Cn1cnc2cc(Br)c(Cl)cc2c1=O` (racemic) [halofuginone], the “ChAT expression (protein) in lumbar spinal cord” value ([1]; 120-day-old mice, compared to DMSO Non-TG group (FIG. 9f)) is reported as “preserved similarly”, the “decreased protein expression of bcl-2 in lumbar spinal cord” value [1, 3] is reported as “improved” and the “increased protein expression of bax in lumbar spinal cord” value [1, 3] is reported as “improved”. For the same compound, the “increased protein expression of cleaved caspase-3 in lumbar spinal cord” value [1, 3] was “improved”, the “mRNA level of ChAT in lumbar spinal cord” value ([2]; 120-day-old mice, compared to DMSO Non-TG group (FIG. 9e)) was “preserved similarly” and the “increase in mRNA levels of M1 markers (iNOS, CD86) in lumbar spinal cord” value ([2]; 120 days of age (FIG. 11a)) was “inhibited”. The “increase in mRNA levels of proinflammatory factors (IFN-a, TNF-a, IL-1b, IL-6) in lumbar spinal cord” value ([2]; 120 days of age (FIG. 11a)) was “inhibited” and the “mRNA level of bcl-2 in lumbar spinal cord” value ([2]; 120 days of age, decreased in DMSO TG group (FIG. 11a)) was “preserved”.
